The IC50 is the concentration needed to halve the response being measured.

The text below walks through data of US9745280B2, “Compound or pharmaceutically acceptable salt thereof, and pharmaceutical composition containing same as active ingredient” (SNU R&DB FOUNDATION, priority 2012, dated 2017).

The subject of the first test is H1299 NSCLC (non-small cell lung cancer) cells. Briefly: Cancer cell growth inhibition (MTS). In kind it is cell-based. Conditions: Homo sapiens, NCI-H1299, 48 hours, MTS reagent. The procedure:
To investigate the inhibitory effect of the compounds of Examples of the present invention on cancer cell growth, the following experiment was performed. Particularly, H1299 NSCLC (non-small cell lung cancer) cells were distributed in a 96-well plate at the density of 5×10^3 cells/well, followed by culture in a 37° C., 5% CO2 incubator for 24 hours. The compound of each example was dissolved in DMSO (10 nM, 100 nM, 1 μM, 10 μM), which was treated to each well. 48 hours later, cell growth was measured by using MTS reagent (3-(4,5-dimethylthiazole-2-yl)-5-(3-carboxymethoxyphenyl)-2-(4-sulfophenyl)-2H-tetrazolium). The experiment was performed in triplicate and the standard error of the analysis result was corrected.
As for `COc1cc2c(cc1OC)[C@H](C(=O)c1ccc3c(c1)C=CC(C)(C)O3)CCO2` (stereo in doubt) [Example 26, (6,7-Dimethoxychroman-4-yl) (2,2-dimethyl-2H-chromen-6-yl)methanone], the IC50 was 3800 nM. Still for that read-out and setting: as for `COc1cc2c(cc1OC)[C@@H]1C(=O)c3ccc4c(c3O[C@@H]1CO2)C=CC(C)(C)O4` [Comparative Example 1 (Deguelin), (7aS,13aS)-9,10-Dimethoxy-3,3-dimethyl-13,13a-dihydro-3H-chromeno[3,4-b]pyrano[2,3-h]chromen-7(7aH)-one, reference compound], the figure is 110 nM. Still for that read-out and setting: as for `CC1(C)C=Cc2c(ccc3c2O[C@@H]2COc4cc(O)c(O)cc4[C@@H]2C3=O)O1` [Example 4, (7aS,13aS)-13,13a-Dihydro-9,10-dihydroxy-3,3-dimethyl-3H-chromeno[3,4-b]pyrano[2,3-h]chromen-7(7aH)-one], the figure is 970 nM; as for `COc1cc2c(cc1OC)-c1c(oc3c4c(ccc3c1=O)OC(C)(C)C=C4)CO2` [Example 5, 9,10-Dimethoxy-3,3-dimethyl-3H-chromeno[3,4-b]pyrano[2,3-h]chromen-7-(13H)-one], 10100 nM; as for `COc1cc2c(cc1OC)[C@@H]1Cc3ccc4c(c3O[C@@H]1CO2)C=CC(C)(C)O4` [Example 7, (7aS,13aS)-9,10-Dimethoxy-3,3-dimethyl-7,7a,13,13a-tetrahydro-3H-chromeno[3,4-b]pyrano[2,3-h]chromene], 4200 nM.

`CCO[C@@H]1c2ccc3c(c2O[C@@H]2COc4cc(OC)c(OC)cc4[C@H]12)C=CC(C)(C)O3` [Example 9, (7S,7aR,3aS)-9,10-Dimethoxy-3,3-dimethyl-7-ethoxy-7,7a,13,13a-tetrahydro-3H-chromeno[3,4-b]pyrano[2,3-h]chromene] had an IC50 of 9800 nM.

`CCCO[C@@H]1c2ccc3c(c2O[C@@H]2COc4cc(OC)c(OC)cc4[C@H]12)C=CC(C)(C)O3` [Example 10, (7S,7aR,3aS)-9,10-Dimethoxy-3,3-dimethyl-7-propoxy-7,7a,13,13a-tetrahydro-3H-chromeno[3,4-b]pyrano[2,3-h]chromene] displayed a 50% inhibitory concentration (IC50) of 10500 nM. Still for that read-out and setting: as for `COc1cc2c(cc1OC)[C@@H]1[C@H](OC(C)=O)c3ccc4c(c3O[C@@H]1CO2)C=CC(C)(C)O4` [Example 13, (7S,7aS,13aS)-9,10-Dimethoxy-3,3-dimethyl-7,7a,13,13a-tetrahydro-3H-chromeno[3,4-b]pyrano[2,3,h]chromen-7-yl acetate], the figure is 680 nM; as for `COc1cc2c(cc1OC)[C@@H]1/C(=N/O)c3ccc4c(c3O[C@@H]1CO2)C=CC(C)(C)O4` [Example 16, (7aR,13aS)-9,10-Dimethoxy-3,3-dimethyl-13,13a-dihydro-3H-chromeno[3,4-b]pyrano[2,3-h]chromen-7(7aH)-one oxime], 300 nM. Still for that read-out and setting: for `CO/N=C1\c2ccc3c(c2O[C@@H]2COc4cc(OC)c(OC)cc4[C@H]12)C=CC(C)(C)O3` [Example 17, (7aR,13aS)-9,10-Dimethoxy-3,3-dimethyl-13,13a-dihydro-3H-chromeno[3,4-b]pyrano[2,3-h]chromen-7(7aH)-one O-methyloxime] the value was 4300 nM; for `COc1cc2c(cc1OC)[C@@H]1C(=O)c3ccc(OC)c(CC=C(C)C)c3O[C@@H]1CO2` [Example 21, 2,3,9-Trimethoxy-8-(3-methyl-but-2-enyl)-6a,12a-dihydro-6H-chromeno[3,4-b]chromen-12-one], 5200 nM. Regarding `COc1ccc([C@H]2COc3c(ccc4c3C=CC(C)(C)O4)C2=O)cc1OC` [Example 25, (3S)-3-(3,4-Dimethoxyphenyl)-8,8-dimethyl-2,3-dihydro-4H,8H-pyrano[2,3-f]chromen-4-one], half-maximal inhibition (IC50) was put at 4500 nM.

The molecule `COc1ccc(CC(=O)c2ccc3c(c2)C=CC(C)(C)O3)cc1OC` [Example 27, 2-(3,4-Dimethoxyphenyl)-1-(2,2-dimethyl-2H-chromen-6-yl)ethanone] displayed a 50% inhibitory concentration (IC50) of 1000 nM. Still for that read-out and setting: for `COc1ccc(C(C)C(=O)c2ccc3c(c2OC)C=CC(C)(C)O3)cc1OC` (stereo not drawn) [Example 29, 2-(3,4-Dimethoxyphenyl)-1-(5-methoxy-2,2-dimethyl-2H-chromen-6-yl)propan-1-one] the value was 730 nM; for `COc1ccc(C(C)(C)C(=O)c2ccc3c(c2OC)C=CC(C)(C)O3)cc1OC` [Example 30, 2-(3,4-Dimethoxyphenyl)-1-(5-methoxy-2,2-dimethyl-2H-chromen-6-yl)-2-methylpropan-1-one], 3200 nM; for `COc1ccc(C2(C(=O)c3ccc4c(c3OC)C=CC(C)(C)O4)CC2)cc1OC` [Example 32], 102000 nM. In the case of `COc1ccc([C@H](C)C(=O)c2ccc3c(c2OC)C=CC(C)(C)O3)cc1OC` [Example 33, (S)-2-(3,4-Dimethoxyphenyl)-1-(5-methoxy-2,2-dimethyl-2H-chromen-6-yl)propan-1-one], inhibition was half-maximal at 490 nM (IC50). As to `COc1ccc([C@@H](C)C(=O)c2ccc3c(c2OC)C=CC(C)(C)O3)cc1OC` [Example 34, (R)-2-(3,4-Dimethoxyphenyl)-1-(5-methoxy-2,2-dimethyl-2H-chromen-6-yl)propan-1-one], the 50% inhibitory concentration (IC50) came out at 1300 nM.

For another test, the system named is HIF-1α. Briefly: HIF-1α inhibitory activity, hypoxia-response element-luciferase in HRE-A549 cells. Type of test: cell-based. Conditions: HIF-1α inhibition, HRE-A549. The procedure: HRE-A549 cells stably transfected with hypoxia-response element-luciferase construct were incubated in Dulbecco's modified Eagle's medium. Following overnight serum deprivation, the cells were treated with or without Deguelin or example compounds. After 1 h incubation, the cells were incubated in hypoxia-chamber for 24 h at 37° C. Luciferase activity was measured by adding luciferase assay reagent (Promega, Madison, Wis.).
With `COc1c(C(=O)Cc2ccccc2F)ccc2c1C=CC(C)(C)O2` [Example 67, 2-(2-fluorophenyl)-1-(5-methoxy-2,2-dimethyl-2H-chromen-6-yl)ethanone], the “times lower concentration compared to Comparative Example 1 (Deguelin)” value was found to be 2.

Still in this test, the particulars now being: HRE-A549 cells, hypoxia-chamber 24 h, luciferase activity.
Molecule `COc1cc2c(cc1OC)[C@@H]1C(=O)c3ccc4c(c3O[C@@H]1CO2)C=CC(C)(C)O4` [Comparative Example 1 (Deguelin), (7aS,13aS)-9,10-Dimethoxy-3,3-dimethyl-13,13a-dihydro-3H-chromeno[3,4-b]pyrano[2,3-h]chromen-7(7aH)-one, reference compound] registered a concentration for half-maximal inhibition (IC50) of 166 nM.

The test is the same for the next values; noted with them: HRE-A549 cells, hypoxia-chamber 24 h, luciferase activity; read-out: IC50.
Turning to `COc1c(C(=O)Cc2ccc(F)c(F)c2)ccc2c1C=CC(C)(C)O2` [Example 56, 2-(3,4-difluorophenyl)-1-(5-methoxy-2,2-dimethyl-2H-chromen-6-yl)ethanone], the 50% inhibitory concentration (IC50) was 1280 nM. On to `COc1c(C(=O)Cc2ccc3c(c2)OCCO3)ccc2c1C=CC(C)(C)O2` [Example 58, 2-(2,3-dihydrobenzo[b][1,4]dioxin-6-yl)-1-(5-methoxy-2,2-dimethyl-2H-chromen-6-yl)ethanone], for which the IC50 was found to be 1330 nM.

For the molecule `COc1c(C(=O)Cc2ccccc2)ccc2c1C=CC(C)(C)O2` [Example 59, 1-(5-methoxy-2,2-dimethyl-2H-chromen-6-yl)-2-phenylethanone], the IC50 is 883 nM. As for `COc1c(C(=O)Cc2ccccc2Cl)ccc2c1C=CC(C)(C)O2` [Example 64, 2-(2-chlorophenyl)-1-(5-methoxy-2,2-dimethyl-2H-chromen-6-yl)ethanone], the concentration for half-maximal inhibition (IC50) is 334 nM. On the same count and under the same terms, as for `COc1c(C(=O)Cc2cccc(F)c2)ccc2c1C=CC(C)(C)O2` [Example 66, 2-(3-fluorophenyl)-1-(5-methoxy-2,2-dimethyl-2H-chromen-6-yl)ethanone], the figure is 363 nM. On the same count and under the same terms, as for `COc1c(C(=O)Cc2ccccc2F)ccc2c1C=CC(C)(C)O2` [Example 67, 2-(2-fluorophenyl)-1-(5-methoxy-2,2-dimethyl-2H-chromen-6-yl)ethanone], the figure is 78.8 nM; as for `COc1c(C(=O)Cc2cccc(Cl)c2)ccc2c1C=CC(C)(C)O2` [Example 68, 2-(3-chlorophenyl)-1-(5-methoxy-2,2-dimethyl-2H-chromen-6-yl)ethanone], 611 nM. Consider `COc1c(C(=O)Cc2ccccc2C(F)(F)F)ccc2c1C=CC(C)(C)O2` [Example 69, 1-(5-methoxy-2,2-dimethyl-2H-chromen-6-yl)-2-(2-(trifluoromethyl)phenyl)ethanone], for which the half-maximal inhibitory concentration (IC50) was 2140 nM. Regarding `COc1c(C(=O)Cc2ccc(C#N)cc2)ccc2c1C=CC(C)(C)O2` [Example 72, 4-(2-(5-methoxy-2,2-dimethyl-2H-chromen-6-yl)-2-oxoethyl)benzonitrile], the IC50 stood at 1240 nM. On the same count and under the same terms, for `COc1c(C(=O)Cc2ccc(F)cc2)ccc2c1C=CC(C)(C)O2` [Example 73, 2-(4-fluorophenyl)-1-(5-methoxy-2,2-dimethyl-2H-chromen-6-yl)ethanone] the value was 1030 nM; for `COc1c(C(=O)Cc2ccc(Cl)cc2)ccc2c1C=CC(C)(C)O2` [Example 74, 2-(4-chlorophenyl)-1-(5-W methoxy-2,2-dimethyl-2H-chromen-6-yl)ethanone], 1270 nM; for `COc1c(C(=O)Cc2ccc(C(F)(F)F)cc2)ccc2c1C=CC(C)(C)O2` [Example 75, 1-(5-methoxy-2,2-dimethyl-2H-chromen-6-yl)-2-(4-(trifluoromethyl)phenyl)ethanone], 604 nM. `COc1cccc(CC(=O)c2ccc3c(c2OC)C=CC(C)(C)O3)c1` [Example 76, 1-(5-methoxy-2,2-dimethyl-2H-chromen-6-yl)-2-(3-methoxyphenyl)ethanone]: the half-inhibitory concentration (IC50) turned out to be 830 nM. With `COc1c(C(=O)Cc2cccc(O)c2)ccc2c1C=CC(C)(C)O2` [Example 83, 2-(3-hydroxyphenyl)-1-(5-methoxy-2,2-dimethyl-2H-chromen-6-yl)ethanone], the 50% inhibitory concentration (IC50) came to 1450 nM. On the same count and under the same terms, as for `COc1c(C(=O)Cc2ccccc2O)ccc2c1C=CC(C)(C)O2` [Example 84, 2-(2-hydroxyphenyl)-1-(5-methoxy-2,2-dimethyl-2H-chromen-6-yl)ethanone], the figure is 943 nM; as for `COc1c(C(=O)Cc2ccc(O)cc2)ccc2c1C=CC(C)(C)O2` [Example 85, 2-(4-hydroxyphenyl)-1-(5-methoxy-2,2-dimethyl-2H-chromen-6-yl)ethanone], 791 nM.
